Laboratory results published in ChEMBL document CHEMBL5260833, “An overview of quinazolines: Pharmacological significance and recent developments” (Eur J Med Chem, 2018).
Values after ≈ are worked out from the molar mass of the structure shown.

Tests used:
Assay type in all cases: functional
Staphylococcus aureus [1] = experiment: Antibacterial activity against Staphylococcus aureus assessed as zone of inhibition at 100 ppm; details: read-out: IZ
Escherichia coli [2] = experiment: Antibacterial activity against Escherichia coli assessed as zone of inhibition at 100 ppm; details: read-out: IZ
Mycolicibacterium phlei = experiment: Antimicrobial activity against Mycobacterium phlei assessed as bacterial growth inhibition
[3] = tested on: Staphylococcus saprophyticus; experiment: Antimicrobial activity against Staphylococcus saprophyticus assessed as bacterial growth inhibition
Klebsiella oxytoca = experiment: Antimicrobial activity against Klebsiella oxytoca assessed as bacterial growth inhibition
Proteus vulgaris = experiment: Antimicrobial activity against Proteus vulgaris assessed as bacterial growth inhibition
Escherichia coli [4] = experiment: Antimicrobial activity against Escherichia coli assessed as bacterial growth inhibition
[5] = tested on: Staphylococcus epidermidis; experiment: Antimicrobial activity against Staphylococcus epidermidis assessed as bacterial growth inhibition
Pseudomonas aeruginosa = experiment: Antimicrobial activity against Pseudomonas aeruginosa assessed as bacterial growth inhibition
Proteus mirabilis = experiment: Antimicrobial activity against Proteus mirabilis assessed as bacterial growth inhibition
Micrococcus luteus = experiment: Antimicrobial activity against Micrococcus luteus assessed as bacterial growth inhibition
Staphylococcus aureus [6] = experiment: Antimicrobial activity against Staphylococcus aureus assessed as bacterial growth inhibition
Bacillus subtilis = experiment: Antimicrobial activity against Bacillus subtilis assessed as bacterial growth inhibition
Citrobacter freundii = experiment: Antimicrobial activity against Citrobacter freundii assessed as bacterial growth inhibition
Candida albicans = experiment: Antimicrobial activity against Candida albicans assessed as bacterial growth inhibition

Row | SMILES | zone of inhibition at 100 µg/mL (Staphylococcus aureus [1]) [mm] | zone of inhibition at 100 µg/mL (Escherichia coli [2]) [mm] | MIC (Mycolicibacterium phlei) [µg/mL] | MIC [3] [µg/mL] | MIC (Klebsiella oxytoca) [µg/mL] | MIC (Proteus vulgaris) [µg/mL] | MIC (Escherichia coli [4]) [µg/mL] | MIC [5] [µg/mL] | MIC (Pseudomonas aeruginosa) [µg/mL] | MIC (Proteus mirabilis) [µg/mL] | MIC (Micrococcus luteus) [µg/mL] | MIC (Staphylococcus aureus [6]) [µg/mL] | MIC (Bacillus subtilis) [µg/mL] | MIC (Citrobacter freundii) [µg/mL] | MIC (Candida albicans) [µg/mL]
1 | Cc1nc2ccc(I)cc2c(=O)n1/N=C/c1cc(Cl)cc(Cl)c1O | 16 | 14 | – | – | – | – | – | – | – | – | – | – | – | – | –
2 | COc1cc(/C=N/n2c(C)nc3ccc(Br)cc3c2=O)cc(Br)c1O | 16 | 14 | – | – | – | – | – | – | – | – | – | – | – | – | –
3 | Cc1nc2ccc(Br)cc2c(=O)n1/N=C/c1cc(Cl)cc(Cl)c1O | 16 | 14 | – | – | – | – | – | – | – | – | – | – | – | – | –
4 | COc1cc(/C=N/n2c(C)nc3ccc(I)cc3c2=O)cc(Br)c1O | 16 | 14 | – | – | – | – | – | – | – | – | – | – | – | – | –
5 | COc1cc(/C=N/n2c(C)nc3ccc(I)cc3c2=O)cc(I)c1O | 16 | 14 | – | – | – | – | – | – | – | – | – | – | – | – | –
6 | O=c1c2ccc(Cl)cc2nc(/C=C/c2ccc(Cl)cc2)n1-c1ccc(O)cc1 | – | – | 125 (≈ 305 µM) | 125 (≈ 305 µM) | 125 (≈ 305 µM) | 125 (≈ 305 µM) | 125 (≈ 305 µM) | 125 (≈ 305 µM) | 125 (≈ 305 µM) | 125 (≈ 305 µM) | 125 (≈ 305 µM) | 125 (≈ 305 µM) | 125 (≈ 305 µM) | 125 (≈ 305 µM) | 125 (≈ 305 µM)
7 | CCCCNC(=O)Oc1ccc(-n2c(/C=C/c3ccc(Cl)cc3)nc3cc(Cl)ccc3c2=O)cc1 | – | – | 125 (≈ 246 µM) | 125 (≈ 246 µM) | 125 (≈ 246 µM) | 125 (≈ 246 µM) | 125 (≈ 246 µM) | 125 (≈ 246 µM) | 125 (≈ 246 µM) | 125 (≈ 246 µM) | 125 (≈ 246 µM) | 125 (≈ 246 µM) | 125 (≈ 246 µM) | 125 (≈ 246 µM) | 125 (≈ 246 µM)
8 | Cc1nc2ccc(I)cc2c(=O)n1/N=C/c1cc(I)cc(I)c1O | 16 | 14 | – | – | – | – | – | – | – | – | – | – | – | – | –
9 | O=c1c2ccc(Cl)cc2nc(/C=C/c2ccccc2[N+](=O)[O-])n1-c1ccc(OCC2CO2)cc1 (stereo unspecified) | – | – | 125 (≈ 263 µM) | 125 (≈ 263 µM) | 125 (≈ 263 µM) | 125 (≈ 263 µM) | 125 (≈ 263 µM) | 125 (≈ 263 µM) | 125 (≈ 263 µM) | 125 (≈ 263 µM) | 125 (≈ 263 µM) | 125 (≈ 263 µM) | 125 (≈ 263 µM) | 125 (≈ 263 µM) | 125 (≈ 263 µM)
10 | CCOC(=O)Oc1ccc(-n2c(/C=C/c3ccc(Cl)cc3)nc3cc(Cl)ccc3c2=O)cc1 | – | – | 125 (≈ 260 µM) | 125 (≈ 260 µM) | 125 (≈ 260 µM) | 125 (≈ 260 µM) | 125 (≈ 260 µM) | 125 (≈ 260 µM) | 125 (≈ 260 µM) | 125 (≈ 260 µM) | 125 (≈ 260 µM) | 125 (≈ 260 µM) | 125 (≈ 260 µM) | 125 (≈ 260 µM) | 125 (≈ 260 µM)
11 | O=c1c2ccc(Cl)cc2nc(/C=C/c2ccc(Cl)cc2)n1-c1ccc(OCC(O)CN2CCCCC2)cc1 (stereo unspecified) | – | – | 125 (≈ 227 µM) | 125 (≈ 227 µM) | 125 (≈ 227 µM) | 125 (≈ 227 µM) | 125 (≈ 227 µM) | 125 (≈ 227 µM) | 125 (≈ 227 µM) | 125 (≈ 227 µM) | 125 (≈ 227 µM) | 125 (≈ 227 µM) | 125 (≈ 227 µM) | 125 (≈ 227 µM) | 125 (≈ 227 µM)
12 | O=c1c2ccc(Cl)cc2nc(/C=C/c2ccccc2[N+](=O)[O-])n1-c1ccc(O)cc1 | – | – | 125 (≈ 298 µM) | 125 (≈ 298 µM) | 125 (≈ 298 µM) | 125 (≈ 298 µM) | 125 (≈ 298 µM) | 125 (≈ 298 µM) | 125 (≈ 298 µM) | 125 (≈ 298 µM) | 125 (≈ 298 µM) | 125 (≈ 298 µM) | 125 (≈ 298 µM) | 125 (≈ 298 µM) | 125 (≈ 298 µM)
13 | O=c1c2ccc([N+](=O)[O-])cc2nc(/C=C/c2ccc(Cl)cc2)n1-c1ccc(O)cc1 | – | – | 125 (≈ 298 µM) | 125 (≈ 298 µM) | 125 (≈ 298 µM) | 125 (≈ 298 µM) | 125 (≈ 298 µM) | 125 (≈ 298 µM) | 125 (≈ 298 µM) | 125 (≈ 298 µM) | 125 (≈ 298 µM) | 125 (≈ 298 µM) | 125 (≈ 298 µM) | 125 (≈ 298 µM) | 125 (≈ 298 µM)
14 | CCOC(=O)Oc1ccc(-n2c(/C=C/c3ccc(Cl)cc3)nc3cc([N+](=O)[O-])ccc3c2=O)cc1 | – | – | 125 (≈ 254 µM) | 125 (≈ 254 µM) | 125 (≈ 254 µM) | 125 (≈ 254 µM) | 125 (≈ 254 µM) | 125 (≈ 254 µM) | 125 (≈ 254 µM) | 125 (≈ 254 µM) | 125 (≈ 254 µM) | 125 (≈ 254 µM) | 125 (≈ 254 µM) | 125 (≈ 254 µM) | 125 (≈ 254 µM)
